The source of these data is US4649911A, “Small particle aerosol generator for treatment of respiratory disease including the lungs” (Baylor College of Medicine, priority 1986, dated 1987).

For this series the following is noted: human, in vivo.

Procedure: The following hematologic studies were performed at admission and at discharge from the hospital: hematocrit, red cell count, white cell count, differential white cell count, hemoglobin concentration and reticulocyte count. Biochemical tests as follows were performed on admission, at discharge, and one month later: indirect bilirubin, direct bilirubin, total bilirubin, blood urea nitrogen, creatinine, glucose, calcium, phosphorus, albumin, total protein, alkaline phcsphatase, serum aspartate transminase (ASP), and serum alanine transaminase (ALT), lactic dehydrogenase (LDH), creatine phosphokinase (CPK), uric acid, and aldolase.
Clinical chemical tests were performed on 14 treated and 17 control patients at admission; at discharge there were 13 treated and 15 controls, and at one month there were 11 and 17 sets of tests performed.

For the compound `NC(=O)c1ncn([C@@H]2O[C@H](CO)[C@@H](O)[C@H]2O)n1` [ribavirin], the absolute lymphocyte count result is listed as “more than doubled”.
